Results: patent US8778889B2, “Antimicrobial decapeptide oral hygiene treatment” (The United States of America as represented by the …, priority 2003, dated 2014)
Ends that are not written are not given here.

Legend:
[1] = system: oral biofilms formed on saliva-coated HA disks by salivary bacteria; experiment: In vitro plaque assay, viable counts of oral biofilms on saliva-coated HA disks; assay type: cell-based, human salivary bacteria; conditions: KSL 200 μg/ml
Description: In conjunction with the dual flow cell system, a modification of an in vitro plaque model of biofilm formation described by Guggenheim et al. (Guggenheim et al., 2001) was used to determine the effects of tested antimicrobials and other agents on developed oral biofilms (see Appendix I for details). HA disks (Clarkson, south Williamsport, Pa.) were employed as substrates for salivary bacteria to form biofilms.
To determine the inhibitory activity of KSL on developed oral biofilms, disks containing 45 h-old biofilms were transferred to wells containing aqueous KSL (200 μg/ml; 1 ml/well). Following 30 min exposure at 37° C., disks were rinsed with 3×1 ml of saline and transferred to sterile 15 ml polypropylene tubes containing 1 ml PBS. Biofilm cells adherent to surfaces (after treatment) were recovered by sonicating for 2 min at 5 watts with a Microson ultrasonic cell disrupter equipped with a cup horn (Misonix Inc., Farmingdale, N.Y.). Settings including the time interval used in the sonication were predetermined empirically to yield maximal recovery of adherent biofilm cells.
The effect of KSL on disrupted biofilms was assessed by recovering biofilm cells from HA disks (45 h-old biofilms) through sonication as described above. The detached biofilm cells (in sterile dH2O) were mixed with an equal volume of aqueous KSL to obtain a final peptide concentration of 200 μg/ml, and the reaction mixtures incubated at 37° C. for 30 min. The interactions of KSL and suspended biofilm cells were terminated by washing in PBS.
To determine the effect of the surface-active agent (benzalkonium chloride; Sigma, St. Louis, Mo.) in promoting the killing of intact biofilms by KSL, 66 h-old oral biofilms were treated with KSL (200 μg/ml), benzalkonium chloride (0.001%), or a combination of the two agents, followed by viable counts determinations and confocal laser scanning microscopy of treated samples.
Viable counts of biofilm cells derived from treated disks or disrupted biofilms were determined by spiral plating serially diluted samples onto blood agar plates. Distilled water or 0.12% aqueous chlorhexidine digluconate (Sigma) was used as the negative or positive control, respectively. The 45 h-old biofilms were exposed to chlorhexidine for 1 min, and to water for 30 min at 37° C.
In this assay, HA disks (Clarkson Chromatography Products, Inc., South Williamsport, Pa.) were used as surfaces on which plaque formation can occur. Before use, sterile HA disks were conditioned in the wells of a 24-well microtiter plate (Becton Dickinson, Franklin Lakes, N.J.) containing 50% sterile saliva by incubating at room temperature for a minimum of two hours on a rotating platform at 95 rpm. The saliva was removed and each well inoculated with isolated salivary bacteria at a bacterial cell concentration of 1.0×10^7 cells/ml in sterile 50% whole saliva. After two hours of incubation (with rotation) at 37° C. to allow the bacteria to adhere to surfaces, unattached bacteria were removed and replaced with supplemented saliva-based medium. The plates were incubated with rotation at 37° C. for 45 h (with medium replaced three times), or 66 h (with medium replaced five times) in a CO2 incubator prior to treatments, and the recovery of biofilm cells from treated or untreated disks.
In these studies, KSL or KSL-W was used at 200 μg/ml, whereas Bzl and CPC were used at 0.001% and 0.0025%, respectively. […]

physchem = assay type: physicochemical; conditions: for half-life at 200 μg/ml: buffer
Method: KSL was analyzed by RP-HPLC using a Prosphere C-18 analytical column (4.6×250 mm, Alltech, Deerfield, Ill.) with a Prosphere C-18 guard column (4.6×7.5 mm, Alltech, Deerfield, Ill.). A gradient elution was performed with mobile phase A (0.1% TFA in water) and mobile phase B (0.1% TFA in acetonitrile). KSL was eluted with a linear gradient from 80:20 to 70:30 (mobile phase A:B) for 8 min at a flow rate of 1.0 ml/min. Total run time was 16 min and the injection volume was 40 μl. Chromatograms were recorded by UV detection at 215 nm.
Test solutions of KSL were prepared using a stock peptide solution of 10 mg/ml in deionized water. The degradation of KSL peptide was investigated in sodium acetate (pH 4), sodium phosphate (pH 7.4) and sodium borate (pH 9) buffers at 0.1 M buffer concentration. Each buffer solution containing 200 μg/ml of KSL was incubated in a temperature-controlled oven at 25, 37 and 55° C., respectively. Samples were taken at pre-determined times and analyzed under HPLC conditions described above. The stability of KSL was studied at 37° C. in artificial saliva over a three day period. Artificial saliva was used in the in vitro release studies in an attempt to simulate actual conditions of use. The ingredients of the artificial saliva were as follows: sodium chloride, 0.844 g; potassium chloride, 1.200 g; calcium chloride dihydrate, 0.193 g; magnesium chloride hexahydrate, 0.111 g; potassium phosphate dibasic, 0.342 g; water to make to 1000 ml. The pH was adjusted with hydrochloric acid solution to pH 5.7±0.1 [26].

VRE VVRAMC #7 = assay type: cell-based, Enterococci
Description: (§1) As shown in the table below, many drug-resistant pathogens including multidrug-resistant Acinetobacter baumannii (clinical isolates) were susceptible to the bactericidal activity of the newly developed antimicrobial peptides. […] This is shown by their lower MIC and MBC against a number of antibiotic-resistant bacteria including methicillin-resistant Staphylococcus aureus, vancomycin-resistant Enterococci, and multidrug-resistant Acinetobacter baumannii. Many of these resistant strains are involved in nosocomial infections, which affect the immunocompromised and the elderly individuals with weakened defenses. The tests were done in a broth microdilution assay as described in our earlier publication (Concannon et al., 2003).

VRE WRAMC #3 = assay type: cell-based, Enterococci
Description: as §1

VRE ATCC #51299 = assay type: cell-based, Enterococci
Description: as §1

VRE WRAMC #6 = assay type: cell-based, Enterococci
Description: as §1

## KKVVFKVKFK-NH2 [KSL, Lys-Lys-Val-Val-Phe-Lys-Val-Lys-Phe-Lys-NH2]
[1]; 45 h-old biofilms disrupted by sonication, 30 min, 37° C.
  reduction of viability, disrupted biofilms, versus dH2O-treated control cells: 1.8 log
[1]; 66 h-old oral biofilms, benzalkonium chloride 0.001%
  effect on viability of intact biofilms compared to water treatment: less effect on the viability
[1]; intact 45-h-old biofilms, 30 min, 37° C.
  reduction of viable counts, intact biofilms: small reduction of viable counts
physchem; pH 4
  half-life at 200 μg/ml: 165 days
  Activation energy (Ea) of degradation: 6.7 kcal/mol
physchem; pH 7.4
  half-life at 200 μg/ml: 13.8 days
physchem; pH 9
  half-life at 200 μg/ml: 4.7 days
VRE VVRAMC #7
  MBC: 100 µg/mL
VRE WRAMC #3
  MBC: >200 µg/mL
  MIC: >200 µg/mL
VRE ATCC #51299
  MBC: >200 µg/mL
  MIC: >200 µg/mL
VRE WRAMC #6
  MBC: 100 µg/mL
